# Test results taken from ChEMBL document CHEMBL3885881, “DrugMatrix”.
# Species on record: Rattus norvegicus
# Test: DrugMatrix - Regimen: Daily Repeat
# Assay type: toxicity, organism-based, Sprague-Dawley
# Parameters: regimen Daily Repeat, gender Male, age 6-8 weeks
# Conditions: in vivo, po, route oral GAVAGE, […]; for SODIUM / TOTAL BILIRUBIN / TOTAL PROTEIN / URIC ACID / ALANINE AMINOTRANSFERASE / ALBUMIN / ALKALINE PHOSPHATASE / ASPARTATE AMINOTRANSFERASE / BLOOD UREA NITROGEN / CARBON DIOXIDE / CHLORIDE / CHOLESTEROL / CREATINE PHOSPHOKINASE / CREATININE / GLUCOSE / LACTATE DEHYDROGENASE / LIPASE / PHOSPHORUS / POTASSIUM: tissue Plasma; for ABSOLUTE BASOPHIL / ABSOLUTE EOSINOPHIL / ABSOLUTE LYMPHOCYTE / ABSOLUTE MONOCYTE / ABSOLUTE SEGMENTED NEUTROPHIL / BASOPHIL / EOSINOPHIL / ERYTHROCYTE COUNT / HEMATOCRIT / HEMOGLOBIN / LEUKOCYTE COUNT / LYMPHOCYTE / MEAN CORPUSCULAR HEMOGLOBIN / MEAN CORPUSCULAR HEMOGLOBIN CONCENTRATION / MEAN CORPUSCULAR VOLUME / MONOCYTE / NEUTROPHIL / NUCLEATED RED BLOOD CELLS / PLATELET COUNT: tissue Blood
# [1] = 12 mg/kg, 72 h, dose level M1, time 3 day
# [2] = 12 mg/kg, 120 h, dose level M1, time 5 day
# [3] = 75 mg/kg, 72 h, dose level M2, time 3 day
# [4] = 75 mg/kg, 120 h, dose level M2, time 5 day
structure (smiles),measurement,setting,value
C#C[C@]1(O)CC[C@H]2[C@@H]3CCC4=CC(=O)CC[C@@H]4[C@H]3CC[C@@]21C [NORETHINDRONE],SODIUM,[1],144.57 MEQ/L
same,TOTAL BILIRUBIN,[1],0.1 mg/dL
same,TOTAL PROTEIN,[1],6.07 G/DL
same,URIC ACID,[1],1 mg/dL
same,ABSOLUTE BASOPHIL,[2],0 CELLS/uL
same,ABSOLUTE EOSINOPHIL,[2],35 CELLS/uL
same,ABSOLUTE LYMPHOCYTE,[2],6197.67 CELLS/uL
same,ABSOLUTE MONOCYTE,[2],151.67 CELLS/uL
same,ABSOLUTE SEGMENTED NEUTROPHIL,[2],315.67 CELLS/uL
same,BASOPHIL,[2],0%
same,EOSINOPHIL,[2],0.67%
same,ERYTHROCYTE COUNT,[2],6.19 x10E6/uL
same,HEMATOCRIT,[2],37.27%
same,HEMOGLOBIN,[2],14.27 G/DL
same,LEUKOCYTE COUNT,[2],6.7 x10E3/uL
same,LYMPHOCYTE,[2],92.67%
same,MEAN CORPUSCULAR HEMOGLOBIN,[2],23.1 pg
same,MEAN CORPUSCULAR HEMOGLOBIN CONCENTRATION,[2],38.3 G/DL
same,MEAN CORPUSCULAR VOLUME,[2],60.33 fL
same,MONOCYTE,[2],2%
same,NEUTROPHIL,[2],4.67%
same,NUCLEATED RED BLOOD CELLS,[2],0 /100WBC
same,PLATELET COUNT,[2],1179.67 x10E3/uL
same,ALANINE AMINOTRANSFERASE,[2],68.33 u/L
same,ALBUMIN,[2],4.67 G/DL
same,ALKALINE PHOSPHATASE,[2],474.33 u/L
same,ASPARTATE AMINOTRANSFERASE,[2],95.67 u/L
same,BLOOD UREA NITROGEN,[2],10 mg/dL
same,CARBON DIOXIDE,[2],25.67 mmol/L
same,CHLORIDE,[2],106.67 MEQ/L
same,CHOLESTEROL,[2],26 mg/dL
same,CREATINE PHOSPHOKINASE,[2],277.33 u/L
same,CREATININE,[2],0.25 mg/dL
same,GLUCOSE,[2],177.33 mg/dL
same,LACTATE DEHYDROGENASE,[2],205 u/L
same,LIPASE,[2],8 u/L
same,PHOSPHORUS,[2],12.13 mg/dL
same,POTASSIUM,[2],5.86 MEQ/L
same,SODIUM,[2],149.4 MEQ/L
same,TOTAL BILIRUBIN,[2],0.1 mg/dL
same,TOTAL PROTEIN,[2],6.73 G/DL
same,URIC ACID,[2],1.83 mg/dL
same,ABSOLUTE BASOPHIL,[3],0 CELLS/uL
same,ABSOLUTE EOSINOPHIL,[3],0 CELLS/uL
same,ABSOLUTE LYMPHOCYTE,[3],4761.67 CELLS/uL
same,ABSOLUTE MONOCYTE,[3],38.67 CELLS/uL
same,ABSOLUTE SEGMENTED NEUTROPHIL,[3],433 CELLS/uL
same,BASOPHIL,[3],0%
same,EOSINOPHIL,[3],0%
same,ERYTHROCYTE COUNT,[3],5.41 x10E6/uL
same,HEMATOCRIT,[3],33.4%
same,HEMOGLOBIN,[3],12.87 G/DL
same,LEUKOCYTE COUNT,[3],5.23 x10E3/uL
same,LYMPHOCYTE,[3],91%
same,MEAN CORPUSCULAR HEMOGLOBIN,[3],23.77 pg
same,MEAN CORPUSCULAR HEMOGLOBIN CONCENTRATION,[3],38.53 G/DL
same,MEAN CORPUSCULAR VOLUME,[3],61.77 fL
same,MONOCYTE,[3],0.67%
same,NEUTROPHIL,[3],8.33%
same,NUCLEATED RED BLOOD CELLS,[3],0 /100WBC
same,PLATELET COUNT,[3],1166.67 x10E3/uL
same,ALANINE AMINOTRANSFERASE,[3],57 u/L
same,ALBUMIN,[3],4.57 G/DL
same,ALKALINE PHOSPHATASE,[3],692 u/L
same,ASPARTATE AMINOTRANSFERASE,[3],76.67 u/L
same,BLOOD UREA NITROGEN,[3],7.67 mg/dL
same,CARBON DIOXIDE,[3],30.67 mmol/L
same,CHLORIDE,[3],104 MEQ/L
same,CHOLESTEROL,[3],29 mg/dL
same,CREATINE PHOSPHOKINASE,[3],225 u/L
same,CREATININE,[3],0.14 mg/dL
same,GLUCOSE,[3],135.67 mg/dL
same,LACTATE DEHYDROGENASE,[3],89 u/L
same,LIPASE,[3],8 u/L
same,PHOSPHORUS,[3],10.6 mg/dL
same,POTASSIUM,[3],5.59 MEQ/L
same,SODIUM,[3],145.07 MEQ/L
same,TOTAL BILIRUBIN,[3],0.17 mg/dL
same,TOTAL PROTEIN,[3],6.37 G/DL
same,URIC ACID,[3],0.63 mg/dL
same,ABSOLUTE BASOPHIL,[4],0 CELLS/uL
same,ABSOLUTE EOSINOPHIL,[4],0 CELLS/uL
same,ABSOLUTE LYMPHOCYTE,[4],9250.67 CELLS/uL
same,ABSOLUTE MONOCYTE,[4],86 CELLS/uL
same,ABSOLUTE SEGMENTED NEUTROPHIL,[4],330 CELLS/uL
same,BASOPHIL,[4],0%
same,EOSINOPHIL,[4],0%
same,ERYTHROCYTE COUNT,[4],6.52 x10E6/uL
same,HEMATOCRIT,[4],38.67%
same,HEMOGLOBIN,[4],14.53 G/DL
same,LEUKOCYTE COUNT,[4],9.67 x10E3/uL
same,LYMPHOCYTE,[4],95.33%
same,MEAN CORPUSCULAR HEMOGLOBIN,[4],22.3 pg
same,MEAN CORPUSCULAR HEMOGLOBIN CONCENTRATION,[4],37.6 G/DL
same,MEAN CORPUSCULAR VOLUME,[4],59.27 fL
same,MONOCYTE,[4],1%
same,NEUTROPHIL,[4],3.67%
same,NUCLEATED RED BLOOD CELLS,[4],0 /100WBC
same,PLATELET COUNT,[4],928.67 x10E3/uL
same,ALANINE AMINOTRANSFERASE,[4],49 u/L
same,ALBUMIN,[4],5 G/DL
same,ALKALINE PHOSPHATASE,[4],440.33 u/L
same,ASPARTATE AMINOTRANSFERASE,[4],68.33 u/L
same,BLOOD UREA NITROGEN,[4],7 mg/dL
same,CARBON DIOXIDE,[4],27 mmol/L
same,CHLORIDE,[4],104.33 MEQ/L
same,CHOLESTEROL,[4],35 mg/dL
same,CREATINE PHOSPHOKINASE,[4],233.67 u/L
same,CREATININE,[4],0.18 mg/dL
same,GLUCOSE,[4],155.67 mg/dL
same,LACTATE DEHYDROGENASE,[4],123.33 u/L
same,LIPASE,[4],7.33 u/L
same,PHOSPHORUS,[4],11 mg/dL
same,POTASSIUM,[4],5.7 MEQ/L
same,SODIUM,[4],147.73 MEQ/L
same,TOTAL BILIRUBIN,[4],0.13 mg/dL
same,TOTAL PROTEIN,[4],7.03 G/DL
same,URIC ACID,[4],1.5 mg/dL
